This is an account of results in patent US9579406B2, “Phospholipid ether analogs as agents for detecting and locating cancer, and methods thereof” (Cellectar, Inc., priority 2004, dated 2017).

Series [1] in a line: MIRD extrapolation of rat tissue distribution data to permissible human dose. On the set-up: species or system human (from rat data). The source says: Accordingly the inventors have conducted the preliminary pharmacokinetic studies in human lung cancer patients at 1 mCi. Similar extrapolative calculation of the dosimetry for ^124I-NM404 afforded a similar 2 mCi dose level again based on projected dosimetry to the adrenals and bladder wall. Preliminary human data (5 patients), however, indicate very little uptake and retention of the agent into any abdominal organ (including the bladder and adrenals) with the exception of the liver which returns to background levels within 11 days.
Dosing of radioiodinated ^124I NM404 will be based on MIRD extrapolation of the iodine-131 dosimetry data derived from this ongoing study. The ^131I-NM404 dose is currently calculated as follows: Animal biodistribution data is used to determine the percentage of injected dose/organ at varying time points. These animal data are extrapolated to man by means of MIRD formalism (MIRDOSE PC v3.1) using standard conversion factors for differences in organ mass and anatomy between rat and standard man, providing predicted human organ doses; Based on these predicted doses, the permissible mCi dose to be injected into humans is determined using the maximal doses legally permitted by RDRC regulations for specific human tissue as defined in the Federal Register (21CFR Part 361.1) e.g. whole body, blood, blood forming tissues, eye lens, gonads—3 rem/dose; any other tissue—5 rem/dose. This approach was previously used to bring both NM324 and NM404 to clinical use, resulting in a calculated dose of 1 mCi.

For series [2], the system named is CNS-1 glioma brain tumor. Briefly: microPET imaging in rat CNS-1 brain tumor model. The class given is in vivo. As to conditions: 24 h after iv injection. As for the experimental part:
The inventors recently successfully radiolabeled NM404 twice with iodine-124 from a commercial vendor (Eastern Isotopes). The radiochemical yield (>60% mean isolated yield, >99% purity) was very similar to what we usually obtain with commercial sources of iodine-125 or 131 sodium iodide. The PET imaging characteristics of ^124I-NM404 in a rat CNS-1 brain tumor model (FIG. 24) was investigated. Imaging times in this preliminary study were limited to 24 h and 4 days post injection due to microPET scanner availability. […] These compounds may then be used for extending NM404 PET utility into human cancer patients.

Series [3] deals with A549 lung, PC-3 prostate, c-myc pancreatic tumors. Briefly: microPET imaging in lung, prostate and pancreatic mouse tumor models. As to conditions: any time point. The class given is in vivo. The source says:
Human pharmacokinetic studies have confirmed this finding as only 4% of the agent is cleared renally within 4 days of iv injection (majority is excreted via GI route).

The test system of series [4] is MAT LyLu cells. Briefly: Gamma camera scintigraphy in rat Dunning R3327 (MAT LyLu) prostate cancer model. As to conditions: tumor-bearing rats, 24 and 48 hours post injection.
Excerpt: The MatLyLu (Dunning R3327 rat) model, a rat prostate tumor line, was used specifically to screen 9 specific analogs prior to entering them into control for dosimetry and tumor-bearing animals for determining tumor/background ratios.
In order to expedite the screening process and minimize the number of tumor bearing animals utilized in multiple time point tissue distribution studies, new radioiodinated homologs were imaged by gamma camera scintigraphy in the rat Dunning R3337 (MAT LyLu strain) prostate cancer model. […] Gamma camera images were obtained at multiple time points including 24 and 48 hours post injection.
The new PLE analogs were synthesized and radiolabeled with ^125I for initial image analysis in Copenhagen rats bearing Dunning R3327 prostate tumors.
Series [5] has as its target T1, Phospholipase C (PLC) (Bacillus cereus, UniProt P09598).
T1 construct: PLC isolated from Bacillus cereus; host or cells: Bacillus cereus (natural source)
Briefly: PLC substrate assay. The series is classed as biochemical. As for the experimental part:
Formal metabolism studies were conducted on several PLE analogs including NM324, the predecessor of NM404. In these studies, each agent was examined to determine their ability to serve as substrates for enzymes associated with PLE metabolism. Three major enzymatic pathways are involved in the metabolism of PLE. O-Alkyl glycerol monooxygenase (AGMO) is responsible for cleavage of the alkyl ether linkage at C-1 to form either the long chain fatty alcohol or subsequently, the corresponding fatty acid. Phospholipases C (PLC) and D (PLD), on the other hand, give rise to the glycerol or phosphatidic acid products, respectively.

In series [6] the test system is lung cancer. Briefly: Initial clinical studies of NM-324 in lung cancer patients. The class given is in vivo, human. The conditions noted are these: for liver radioactivity in patients: human, in vivo; for tumor uptake in cancer patients: scintigraphy.
Series [7] in a line: Blood plasma kinetics in rats. The conditions noted are these: rat, read-out: elimination half life time in plasma (converted). The class given is in vivo.
Series [8] relates to several animal tumor models. In words: Animal tumor localization studies with first generation PLE analogs. As to conditions: iodine-125 labeled; Walker 256, Lewis mammary, Dunning R3327, Vx2, human xenografts. The class given is in vivo. From the text:
Phospholipid ethers can easily be labeled with iodine radioisotopes using radiolabeling methods developed in the labs. The iodophenyl phospholipid ether analogs are specifically designed so that the radioiodine affixed to each molecule is stable to facile in vivo deiodination. […] The inventors have now synthesized over 20 radiolabeled PLE compounds and tested in vitro and in vivo. […] Optimal tumor localization of these agents takes from one to several days due to the more rapid clearance of the radioactivity from normal tissues relative to tumor.
On the technique in general: Xenograft models place foreign cells or tissue in a host animal.

Series [9] deals with carrageenan-induced granulomas. In words: Uptake in carrageenan-induced granulomas. On the set-up: species or system rats. The conditions noted are these: rat, in vivo. From the text:
This lack of specificity is a significant clinical issue in patients with cancer.

Series [10] deals with rat mammary tumor. Briefly: Biodistribution in rat mammary tumor model. The series is classed as in vivo. As for the experimental part: In one such example in a rat mammary tumor model, tumor-to-normal tissue ratios reached a maximum at 96 hours with a tumor-to-blood ratio of 8.6 and tumor-to-muscle ratio of 20:1.
Extensive biodistribution data for the prototype agent ^125I-NM324 in several tumor models has previously been reported. […] For example, in a rat mammary tumor model, tumor-to-normal tissue ratios reached a maximum at 96 hours with a tumor-to-blood ratio of 8.6 and tumor-to-muscle ratio of 20:1. […] Comparative biodistribution data for NM324 and NM404 in SCID mice have been obtained in prostate and A549 lung cancer tumor models.

Series [11] concerns Walker-256 carcinosarcoma. Briefly: Tissue distribution of radioactivity in rats bearing Walker-256 carcinosarcoma. The series is classed as in vivo, rat.
Series [12] has as its system non-small cell lung cancer. In words: Planar gamma-camera scintigraphy with 131I-NM-404 in NSCLC patients. As to conditions: <1 mCi, n=3.
Description: (§1) The preparation dispensed by the Nuclear Pharmacy will be certified as sterile and pyrogen-free. The subject will be monitored for adverse reactions during and after the infusion. Vital signs will be checked immediately after the infusion, and at 60 minute intervals up to four hours post-injection. They will be observed for adverse events throughout this time. […] Vital signs will be monitored at these times. Any adverse reactions experienced by the subjects will be recorded.
Series [13] has as its system non-small cell lung cancer. As to conditions: human, in vivo.
Description: as §1
Series [14] is classed as in vivo, human.
For series [15] the following is noted: mouse; cited from earlier work.
Series [16] has as its system serum proteins. The conditions noted are these: cited from earlier work.
For series [17] the following is noted: cited from earlier work.
The conditions of series [18]: rats, cited from earlier work.

The structures appear in SMILES notation. “Also recorded” adds a separate entry of the source. Like-named read-outs stand apart in the source and are kept apart here. Some results are limits rather than exact numbers.

T1 sequence (P09598 39-283 limits assumed): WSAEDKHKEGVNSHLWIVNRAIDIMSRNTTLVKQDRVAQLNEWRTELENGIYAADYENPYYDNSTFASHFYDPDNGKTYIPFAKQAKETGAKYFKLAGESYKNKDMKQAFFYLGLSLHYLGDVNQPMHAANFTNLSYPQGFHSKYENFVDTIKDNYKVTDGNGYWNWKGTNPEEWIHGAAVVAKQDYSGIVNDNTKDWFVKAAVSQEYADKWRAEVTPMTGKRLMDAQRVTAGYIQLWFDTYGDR

Regarding `C[N+](C)(C)CCOP(=O)([O-])OCCCCCCCCCCCCCCCCCCc1ccc([124I])cc1` [^124I-NM404], the “dose level based on projected dosimetry to the adrenals and bladder wall” value in series [1] (124I label) is given as 2 mCi. Also, the “tracer uptake in brain tumor and surrounding brain” value in [2] is on record as “intense uptake of the tracer in the brain tumor accompanied by little or no uptake in surrounding intact brain tissue”. Also, in series [3], the bladder activity result is listed as “lack of bladder activity at any time point; also recorded: No bladder activity was evident at any time point”.

Consider `COC(COCCCCCCCCCCCCCCCCCCc1ccc(I)cc1)COP(=O)([O-])OCC[N+](C)(C)C` (racemic) [NM-410, 1-O-[18-(p-Iodophenyl)octadecyl]-2-O-methyl-rac-glycero-3-phosphocholine], for which the “tumor uptake and liver/abdominal radioactivity by gamma camera imaging” value in series [4] is “high hepatic uptake, significant abdominal accumulation and retention or poor tumor uptake and retention; also recorded: high radioactivity levels in the liver and abdomen with little to no uptake of the agent into tumors”; in [4] (listed as 10) it was “retarded tumor uptake significantly”.

As for `[3H]C(CCCCCC)C([3H])CCCCCCCC(=O)O[C@H](COC(=O)CCCCCCCCCCCCCCC)COP(=O)([O-])OCC[N+](C)(C)C` (stereo partly drawn) [DPPC, 1-palmitoyl-2-[3H]-palmitoyl-L-3-phosphatidylcholine], the “hydrolysis by PLC” value in [5] is listed as “underwent significant hydrolysis”.

Take `C[N+](C)(C)CCOP(=O)([O-])OCCCCCCCCCCCCc1cccc(I)c1` [NM-324, 12-(3-iodophenyl)-dodecylphosphocholine]: the “liver radioactivity in patients” value in [6] is given as “high liver radioactivity”; in series [6] (listed as NM324) it was “unacceptable accumulation in liver tissue”. The lung tumor uptake result in [6] (images 6 h post injection, lung cancer patient) was “intense lung tumor uptake”. The “tumor uptake in cancer patients” value in series [6] is reported as “excellent tumor uptake”; in series [6] (listed as 131I-NM-324), “Uptake is seen in the left lingular lung cancer (T) with increasing tumor-to-background ratios over time”. Moreover, in series [1], the “calculated dose for clinical use” value is 1 mCi. Besides, the half-life (commonly the time needed for the level to fall by half in the phase considered) in series [7] is 2.43 h. The tumor localization entry in [8] is “selectively localized in tumors over time”. Besides, in [9], the “uptake and retention in granulomas” value is “no uptake and retention”. The tumor-to-blood ratio in [10] (96 hours) was 8.6. Further, in series [10] (rat, in vivo), the “time of maximum tumor-to-normal tissue ratios” value came out at 96 h.

`COC(COCCCCCCCCCCCCc1cccc([125I])c1)COP(=O)([O-])OCC[N+](C)(C)C` (stereo not drawn) [NM-294]: in series [8], the tumor localization entry was “selectively localized in tumors over time”.

In the case of `C[N+](C)(C)CCOP(=O)([O-])OCCCOCCCCCCCCCCCCCCCCCCc1ccc(I)cc1` [NM-412, 1-O-[18-(p-Iodophenyl)octadecyl]-1,3-propanediol-3-phosphocholine], the “tumor uptake and liver/abdominal radioactivity by gamma camera imaging” value in series [4] was “high levels of liver and abdominal radioactivity; also recorded: tumor uptake accompanied by high liver and abdominal radioactivity levels”; in series [4] (listed as 8), “fairly high levels of liver and abdominal radioactivity”.

On to `C[N+](C)(C)CCOP(=O)([O-])OCCCCCCCCCCCCCCCc1ccc(I)cc1` [NM-397], for which the “tumor uptake and liver/abdominal radioactivity by gamma camera imaging” value in series [4] is recorded as “readily visualized”. The “increase in tumor uptake versus C12 analog 4” value in series [11] (24 h) is 2 fold. In series [11] (48 hours after administration), the “radioactivity in the duodenum (maximum)” value is on record as 1.38±0.24 % ID/g and the “radioactivity in the tumor (peak)” value was 1.65±0.23 % of ID/g. The blood levels in series [11] (120 hours) is 0.07±0.00 % of ID/g. Also, the “time of peak tumor radioactivity” value in series [11] (after administration) came out at 48 h.

Take `C[N+](C)(C)CCOP(=O)([O-])OCCCCCCCc1ccc(I)cc1` [NM-396]: in series [11] (24 hours), the “radioactivity in all of the organs surveyed” value is < 0.10 % ID/g and the “radioactivity in the thyroid” value was found to be 213 % ID/g. In addition, in [11] (all time points examined), the “localization in tumor tissue” value is reported as “did not localize in tumor tissue at any of the time points examined”.

Take `C[N+](C)(C)CCOP(=O)([O-])OCCCCCCCCCCCCCCCCCCc1ccc([131I])cc1` [^131I-NM404]: the “tumor uptake and retention” value in [12] was “tumor uptake and prolonged retention in the primary lung tumors”. For the same compound, the starting maximum dose result in series [1] was “around 1.9 mCi”. In series [1] (131I label), the “5 Rad limiting dose to the adrenals and bladder wall” value is reported as 2 mCi. In addition, the “crossing of the blood brain barrier” value in series [13] is given as “doesn't cross the intact blood brain barrier”. Besides, the “time for liver to return to background levels” value in [14] (5 patients) is on record as ≤ 11 days. The “dose level safe to administer” value in [14] (advanced non-small cell lung cancer subjects) turned out to be 0.0003 mg/kg. Further, in series [14] (first-in-human pharmacokinetic studies), the safety entry is “safe”.

Regarding `CCCCCCCCCCCCCCCCCCOCC(COP(=O)([O-])OCC[N+](C)(C)C)OC` (stereo not drawn) [ET-18-OCH3], the “LD50 (oral)” value in [15] is 200 mg/kg. Besides, in series [16], the “ether lipid bound to HDL” value is listed as “about 6%” and the “ether lipid bound to albumin” value is listed as 71%. For the same compound, the maximum tolerated dose in series [17] (intravenous) is 50 mg/kg. For the same compound, in [17] (up to 4 hours post-injection), the adverse effects reported result is “pulmonary edema impaired hepatic function and hemolysis”.

As for `C[N+](C)(C)CCOP(=O)([O-])OCCCCCCCCCCCCc1ccc(I)cc1` [NM-346], the “tumor uptake and liver/abdominal radioactivity by gamma camera imaging” value in series [4] is on record as “readily visualized”.

Consider `O=C([O-])CC(O)(CC(=O)[O-])C(=O)[O-].[Ga+3]` [Gallium citrate, reference compound], for which the “uptake and retention in granulomas” value in [9] was “did indeed concentrate significantly in the granulomatous lesions”.

As to `CCCCCCCCCCCCCCCCOP(=O)([O-])OCC[N+](C)(C)C` [Miltefosine, hexadecyl phosphocholine], in [18] (over a 4-week period), the maximum tolerated dose was 39 nmol/kg. Further, the median lethal dose (LD50) – broadly, the dose expected to kill half of the subjects tested – in [18] is reported as 606 nmol/kg.
